Results published in ChEMBL document CHEMBL5729054, “Five membered-aminoheterocycle and 5,6-or 6,6-membered bicyclic aminoheterocyclic inhibitors of rock for the treatment of heart failure” (2022).

Target: Rho-associated protein kinase 2 (Homo sapiens, UniProt O75116)
Experiment: In Vitro Assay: The effectiveness of compounds of the present invention as ROCK inhibitors can be determined in a 30 μL assay containing 20 mM HEPES, pH 7.5, 20 mM MgCl2, 0.015% Brij-35, 4 mM DTT, 5 μM ATP and 1.5 μM peptide substrate (FITC-AHA-AKRRRLSSLRA-OH) (SEQ ID No. 1). Compounds were dissolved in DMSO so that the final concentration of DMSO was <2%, and the reaction was initiated with Rho kinase variants. After incubation, the reaction was terminated by the addition of EDTA and the phosphorylated and non-phosphorylated peptides separated using a LABCHIP® 3000 Reader (Caliper Life Sciences). […] Compounds were tested in dose-response format, and the inhibition of kinase activity was calculated at each concentration of compound. The inhibition data were fit using a curve-fitting program to determine the IC50; i.e., the concentration of compound required to inhibit 50% of kinase activity.

Sequence of Rho-associated protein kinase 2 (O75116 whole entry, looked up, change not shown): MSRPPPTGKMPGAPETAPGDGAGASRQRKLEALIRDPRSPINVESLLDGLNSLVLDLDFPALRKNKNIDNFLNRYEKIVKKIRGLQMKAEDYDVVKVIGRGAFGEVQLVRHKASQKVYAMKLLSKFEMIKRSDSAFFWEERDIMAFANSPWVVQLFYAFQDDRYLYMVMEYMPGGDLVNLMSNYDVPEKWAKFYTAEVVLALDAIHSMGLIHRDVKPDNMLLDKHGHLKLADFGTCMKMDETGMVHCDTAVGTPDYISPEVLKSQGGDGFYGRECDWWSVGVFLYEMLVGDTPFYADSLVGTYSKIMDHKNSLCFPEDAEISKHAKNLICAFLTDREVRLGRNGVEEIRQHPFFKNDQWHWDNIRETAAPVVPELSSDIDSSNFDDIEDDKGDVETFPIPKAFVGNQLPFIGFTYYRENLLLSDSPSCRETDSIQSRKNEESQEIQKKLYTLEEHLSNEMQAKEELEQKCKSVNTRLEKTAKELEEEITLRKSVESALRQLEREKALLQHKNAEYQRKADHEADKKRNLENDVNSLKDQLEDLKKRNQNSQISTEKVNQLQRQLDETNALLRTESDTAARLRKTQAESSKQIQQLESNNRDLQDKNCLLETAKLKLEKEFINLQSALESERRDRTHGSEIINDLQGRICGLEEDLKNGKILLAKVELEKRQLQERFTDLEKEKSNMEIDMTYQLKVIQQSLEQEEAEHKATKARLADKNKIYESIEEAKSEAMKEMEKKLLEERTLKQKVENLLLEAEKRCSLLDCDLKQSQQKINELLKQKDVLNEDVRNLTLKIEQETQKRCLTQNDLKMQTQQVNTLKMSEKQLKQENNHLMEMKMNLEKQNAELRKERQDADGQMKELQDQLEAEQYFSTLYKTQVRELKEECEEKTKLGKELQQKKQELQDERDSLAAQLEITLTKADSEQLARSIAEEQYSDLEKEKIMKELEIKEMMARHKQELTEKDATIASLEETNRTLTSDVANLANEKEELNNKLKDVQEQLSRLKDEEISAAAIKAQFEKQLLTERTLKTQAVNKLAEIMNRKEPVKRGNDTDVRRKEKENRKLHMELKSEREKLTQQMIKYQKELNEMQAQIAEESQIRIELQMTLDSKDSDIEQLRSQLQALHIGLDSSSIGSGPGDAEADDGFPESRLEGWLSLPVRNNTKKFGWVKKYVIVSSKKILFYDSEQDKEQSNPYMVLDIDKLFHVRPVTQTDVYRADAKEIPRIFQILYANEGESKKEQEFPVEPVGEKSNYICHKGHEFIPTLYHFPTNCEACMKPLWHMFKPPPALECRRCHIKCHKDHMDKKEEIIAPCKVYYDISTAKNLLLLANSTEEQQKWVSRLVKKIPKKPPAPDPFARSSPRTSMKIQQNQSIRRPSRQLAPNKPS

IC50: 1510 nM
Compound: N#Cc1cnc(NC2CC3(C2)CC(Oc2ncccc2C(N)=O)C3)nc1 (stereo unspecified)
